According to patent US10899738B2 (THE REGENTS OF THE UNIVERSITY OF MICHIGAN, priority 2016, dated 2021):
Where two headings read alike, the source gives them in different places.

Tests used:
[1] = biological target: menin protein (Homo sapiens (Human), UniProt O00255); assay: biochemical; type: binding; conditions: FP competitive binding; menin protein 4 nM, FAM-MM2 probe 2 nM; read-out: Menin Binding Affinity IC50
In short: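 Competitive fluorescence polarization assay using FAM-labelled MLL1 peptide probe FAM-MM2 (2 nM final) preincubated with menin (4 nM final) in PBS with 0.02% bovine γ-globulin, 4% DMSO and 0.01% Triton X-100. Compounds were added and incubated 30 min at room temperature. IC50 came from nonlinear regression of competition curves, with Ki also derived.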

[2] = Cell growth inhibition, CellTiter-Glo Luminescent Cell Viability Assay; type: cell-based
In short: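 Cells seeded at 2,000/well with serially diluted compound and cultured 4 days at 37 °C, 5% CO2. Viability read by CellTiter-Glo luminescence; IC50 derived from dose-response.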

[3] = MOLM-13, 96 h, read-out: Cell Growth Inhibition IC50 (μM) MOLM13, MOLM13 cells, 4 days, CellTiter-Glo
[4] = MV4-11, 96 h, read-out: Cell Growth Inhibition IC50 (μM) MV4, 11, MV4, 11 cells, 4 days, CellTiter-Glo
[5] = MOLM-13, 96 h, MOLM13 cells, 4 days, CellTiter-Glo, read-out: Cell Growth Inhibition IC50 (μM) MOLM13
[6] = MV4-11, 96 h, MV4, 11 cells, 4 days, CellTiter-Glo, read-out: Cell Growth Inhibition IC50 (μM) MV4, 11

Sequence of menin protein (O00255 whole entry): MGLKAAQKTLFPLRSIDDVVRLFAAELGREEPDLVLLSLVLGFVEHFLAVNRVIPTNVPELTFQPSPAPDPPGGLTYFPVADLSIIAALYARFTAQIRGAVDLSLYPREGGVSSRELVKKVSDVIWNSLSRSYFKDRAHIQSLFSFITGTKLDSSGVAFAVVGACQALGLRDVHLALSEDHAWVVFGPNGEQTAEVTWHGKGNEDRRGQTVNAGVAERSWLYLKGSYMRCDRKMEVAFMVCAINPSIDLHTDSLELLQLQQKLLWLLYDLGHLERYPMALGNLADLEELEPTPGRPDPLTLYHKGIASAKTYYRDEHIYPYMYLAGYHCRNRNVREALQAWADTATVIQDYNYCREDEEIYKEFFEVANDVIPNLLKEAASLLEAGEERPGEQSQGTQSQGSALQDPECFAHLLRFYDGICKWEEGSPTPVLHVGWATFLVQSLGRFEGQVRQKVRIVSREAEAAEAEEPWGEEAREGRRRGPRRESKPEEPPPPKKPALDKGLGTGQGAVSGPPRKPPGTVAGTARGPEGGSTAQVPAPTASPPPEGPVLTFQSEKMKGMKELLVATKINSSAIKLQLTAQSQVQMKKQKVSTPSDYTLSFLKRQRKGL

Row | Compound | IC50 [1] [nM] | IC50 [2, 3] [µM] | IC50 [2, 4] [µM] | IC50 [2, 5] [µM] | IC50 [2, 6] [µM]
1 | CCN1Cc2ccccc2C(C2CCN(CC3CN(c4ccc(S(=O)(=O)c5cnn(C)c5)cc4)C3)CC2)([C@H]2CCC[C@@H]2NC(C)=O)C1 (mixture of isomers) [Cpd. No. 292, rac-N-((1S,2R)-2-(2-ethyl-4-(1-((1-(4-((1-methyl-1H-pyrazol-4-yl)sulfonyl)phenyl)azetidin-3-yl)methyl)piperidin-4-yl)-1,2,3,4-tetrahydroisoquinolin-4-yl)cyclopentyl)acetamide] | 11 | 1.34 | 0.13 |  | 
2 | CNC(=O)N[C@@H]1CCC[C@H]1C1(C2CCN(CC3CN(c4ccc(S(=O)(=O)c5ccncc5)cc4)C3)CC2)CN(C)Cc2ccccc21 (mixture of isomers) [compound 278, rac-1-methyl-3-((1R,2S)-2-(2-methyl-4-(1-((1-(4-(pyridin-4-ylsulfonyl)phenyl)azetidin-3-yl)methyl)piperidin-4-yl)-1,2,3,4-tetrahydroisoquinolin-4-yl)cyclopentyl)urea] | 296 | 2.12 | 2.27 |  | 
3 | CC(=O)O[C@H]1CCC[C@@H]1C1(C2CCN(CC3CN(c4ccc(S(=O)(=O)c5ccnc(C)c5)cc4)C3)CC2)CN(C)Cc2ccccc21 (mixture of isomers) [compound 201, rac-(1S,2R)-2-(2-methyl-4-(1-((1-(4-((2-methylpyridin-4-yl)sulfonyl)phenyl)azetidin-3-yl)methyl)piperidin-4-yl)-1,2,3,4-tetrahydroisoquinolin-4-yl)cyclopentyl acetate] | 5 | 0.399 ± 0.153 | 0.09 ± 0.051 |  | 
4 | CC(=O)N[C@H]1CCC[C@@H]1C1(C2CCN(CC3CN(c4ccc(S(=O)(=O)c5ccncc5)cc4)C3)CC2)CN(C)Cc2ccccc21 (mixture of isomers) [compound 271, rac-N-((1S,2R)-2-(2-methyl-4-(1-((1-(4-(pyridin-4-ylsulfonyl)phenyl)azetidin-3-yl)methyl)piperidin-4-yl)-1,2,3,4-tetrahydroisoquinolin-4-yl)cyclopentyl)acetamide] | 5 | 0.717 ± 0.002 | 0.123 ± 0.043 |  | 
5 | CCN1Cc2ccccc2C(C2CCCC2)(C2CCN(CC3CN(c4ccc(S(=O)(=O)c5cnn(C)c5)cc4)C3)CC2)C1 (stereo not drawn) [compound 102, 4-cyclopentyl-2-ethyl-4-(1-((1-(4-((1-methyl-1H-pyrazol-4-yl)sulfonyl)phenyl)azetidin-3-yl)methyl)piperidin-4-yl)-1,2,3,4-tetrahydroisoquinoline] | 11 |  |  | 0.708 | 0.267
6 | CN1Cc2ccccc2C(C2CCCC2)(C2CCN(CCCOc3ccc(C#N)cc3)CC2)C1 (stereo not drawn) [compound 23, 4-(3-(4-(4-cyclopentyl-2-methyl-1,2,3,4-tetrahydroisoquinolin-4-yl)piperidin-1-yl)propoxy)benzonitrile] | 54 | 5 | 1 ± 0.4 |  | 
7 | COC(=O)N[C@H]1CCC[C@@H]1C(C#N)(c1ccccc1)C1CCN(CCC#Cc2ccc(C#N)cc2)CC1 (mixture of isomers) [compound 404, methyl rac-((1S,2R)-2-(cyano(1-(4-(4-cyanophenyl)but-3-yn-1-yl)piperidin-4-yl)(phenyl)methyl)cyclopentyl) carbamate] | 212 | > 10 | > 10 |  | 
8 | N#Cc1ccc(N2CCC(CN3CCC(C4(C5CCCC5)NCCc5ccccc54)CC3)C2)cc1 (stereo not drawn) [compound 113, 4-(3-((4-(1-cyclopentyl-1,2,3,4-tetrahydroisoquinolin-1-yl)piperidin-1-yl)methyl)pyrrolidin-1-yl)benzonitrile] | 67 |  |  | 2.4 | 1.6
9 | CCN1Cc2ccccc2C(C2CCN(CC3CN(c4ccc(S(=O)(=O)c5cnn(C)c5)cc4)C3)CC2)([C@H]2CCC[C@@H]2NC(=O)NC)C1 (mixture of isomers) [Cpd. No. 291, rac-1-((1S,2R)-2-(2-ethyl-4-(1-((1-(4-((1-methyl-1H-pyrazol-4-yl)sulfonyl)phenyl)azetidin-3-yl)methyl)piperidin-4-yl)-1,2,3,4-tetrahydroisoquinolin-4-yl)cyclopentyl)-3-methylurea] | 7 | 0.71 | 0.2 |  | 
10 | CCN1Cc2ccccc2C(C2CCCC2)(C2CCN(CC3CN(c4ccc(S(=O)(=O)c5ccncc5C)cc4)C3)CC2)C1 (stereo not drawn) [compound 153, 4-cyclopentyl-2-ethyl-4-(1-((1-(4-((3-methylpyridin-4-yl)sulfonyl)phenyl)azetidin-3-yl)methyl)piperidin-4-yl)-1,2,3,4-tetrahydroisoquinoline] | 7 |  |  | 0.77 | 0.79
11 | CN1Cc2ccccc2C(C2CCCC2)(C2CCN(CC3CN(c4ccc(S(=O)(=O)C5CC5)cc4)C3)CC2)C1 (stereo not drawn) [compound 70, 4-cyclopentyl-4-(1-((1-(4-(cyclopropylsulfonyl)phenyl)azetidin-3-yl)methyl)piperidin-4-yl)-2-methyl-1,2,3,4-tetrahydroisoquinoline] | 12 |  |  | 3.5 | 2.2
12 | CCN1Cc2ccccc2C(C2CCN(CC3CN(c4ccc(S(=O)(=O)c5ccccc5)cc4)C3)CC2)([C@H]2CCC[C@@H]2NC(=O)NC)C1 (mixture of isomers) [compound 290, rac-1-((1S,2R)-2-(2-ethyl-4-(1-((1-(4-(phenylsulfonyl)phenyl)azetidin-3-yl)methyl)piperidin-4-yl)-1,2,3,4-tetrahydroisoquinolin-4-yl)cyclopentyl)-3-methylurea] | 9 | 0.32 | 0.11 |  | 
13 | CNC(=O)O[C@H]1CCC[C@@H]1C(C#N)(c1ccccc1)C1CCN(C2CCN(c3ccc(S(=O)(=O)c4ccccc4)cc3)CC2)CC1 (mixture of isomers) [compound 234, rac-(1S,2R)-2-(cyano(phenyl)(1′-(4-(phenylsulfonyl)phenyl)-[1,4′-bipiperidin]-4-yl)methyl)cyclopentyl methylcarbamate] | 50 | 6.41 | 1.11 |  | 
14 | O=S(=O)(c1ccc(N2CC(CN3CCC(C4(C5CCCC5)NCCc5ccccc54)CC3)C2)cc1)C1CC1 (stereo not drawn) [compound 135, 1-cyclopentyl-1-(1-((1-(4-(cyclopropylsulfonyl)phenyl)azetidin-3-yl)methyl)piperidin-4-yl)-1,2,3,4-tetrahydroisoquinoline] | 25 |  |  | 2.1 ± 1 | 1.3 ± 0.4
15 | CCN1Cc2ccccc2C(C2CCCC2)(C2CCN(CC3(F)CN(c4ccc(S(=O)(=O)C5CC5)cc4)C3)CC2)C1 (stereo not drawn) [compound 141, 4-cyclopentyl-4-(1-((1-(4-(cyclopropylsulfonyl)phenyl)-3-fluoroazetidin-3-yl)methyl)piperidin-4-yl)-2-ethyl-1,2,3,4-tetrahy36droisoquinoline] | 28 |  |  | 54.7 | 4.7
16 | O=S(=O)(CC1CCCC1)c1ccc(N2CC(CN3CCC(C4(C5CCCC5)NCCc5ccccc54)CC3)C2)cc1 (stereo not drawn) [compound 91, 1-cyclopentyl-1-(1-((1-(4-((cyclopentylmethyl)sulfonyl)phenyl)azetidin-3-yl)methyl)piperidin-4-yl)-1,2,3,4-tetrahydroisoquinoline] | 42 |  |  | 1.7 ± 0.004 | 1.3 ± 0.3
